target: DGKα (Homo sapiens (Human), UniProt P23743); test: Human DGKα kinase activity inhibition assay (ADP-Glo); assay type: biochemical; settings: recombinant full-length human DGKα, 55 μM ATP, 7 μM 1,2-dioleoyl-sn-glycerol, read-out: IC50 values of examples in in vitro human DGKa kinase activity inhibition assays
Procedure: Human DGKα Kinase Activity Inhibition Assay
Human DGKα inhibitory activity of compounds of the present invention was quantified employing the human DGKα kinase activity assay as described in the following paragraphs. In essence, the enzyme activity was measured by quantification of the adenosine-di-phosphate (ADP) generated as a co-product of the enzyme reaction via the “ADP-Glo™ Kinase Assay” kit from the company Promega. This detection system works as follows: In a first step the ATP not consumed in the kinase reaction is quantitatively converted to cAMP employing an adenylate cyclase (“ADP-Glo-reagent”), then the adenylate cyclase is stopped and the ADP generated in the kinase reaction converted to ATP, which subsequently generates in a luciferase-based reaction a glow-luminescence signal (“Kinase Detection Reagent”).
C-terminally FLAG-tagged, recombinant full-length human DGKα (expressed in baculovirus infected insect cells, purified using anti-Flag pulldown and size exclusion chromatography as described below, DGKa_hu_1) was used as enzyme. As substrate for the kinase 1,2-dioleoyl-sn-glycerol, reconstituted in octyl-β-D-glucopyranoside micelles, was used. […] Then 35 volumes of 50 mM MOPS buffer (pH 7.4) were added to yield a solution of 0.28 mM 1,2 dioleoyl-sn-glycerol and 200 mM […], which was aliquoted, flash-frozen in liquid nitrogen, and stored at −20° C. until use.
For the assay 50 nl of a 100-fold concentrated solution of the test compound in dimethyl sulfoxide (DMSO, Sigma) was pipetted into either a white 1536-well or a white low-volume 384-well microtiter plate (both Greiner Bio-One, Frickenhausen, Germany).

Chain of DGKα (P23743 other isoform, or with tags, fused parts or gaps): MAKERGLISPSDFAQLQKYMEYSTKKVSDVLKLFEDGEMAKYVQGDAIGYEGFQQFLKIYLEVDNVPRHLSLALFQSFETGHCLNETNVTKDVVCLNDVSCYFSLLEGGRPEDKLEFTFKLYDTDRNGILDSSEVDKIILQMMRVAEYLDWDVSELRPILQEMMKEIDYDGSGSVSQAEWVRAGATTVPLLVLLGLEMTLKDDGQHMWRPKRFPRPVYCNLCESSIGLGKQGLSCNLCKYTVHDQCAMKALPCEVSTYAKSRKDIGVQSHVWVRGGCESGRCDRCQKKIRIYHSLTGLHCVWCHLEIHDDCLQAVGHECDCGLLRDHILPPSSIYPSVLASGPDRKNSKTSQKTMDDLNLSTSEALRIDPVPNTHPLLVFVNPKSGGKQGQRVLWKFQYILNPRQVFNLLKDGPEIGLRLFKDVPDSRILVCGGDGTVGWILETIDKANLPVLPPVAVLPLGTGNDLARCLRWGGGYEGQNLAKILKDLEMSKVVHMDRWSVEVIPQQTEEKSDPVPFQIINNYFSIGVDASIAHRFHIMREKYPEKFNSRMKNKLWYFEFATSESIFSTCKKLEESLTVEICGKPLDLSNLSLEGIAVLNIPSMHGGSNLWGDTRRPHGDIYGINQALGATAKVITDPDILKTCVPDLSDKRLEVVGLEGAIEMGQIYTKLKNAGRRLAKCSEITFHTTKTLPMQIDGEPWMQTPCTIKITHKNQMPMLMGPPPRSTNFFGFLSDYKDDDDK

| SMILES | IC50 [nM] |
| --- | --- |
| Cc1cccc2oc(C3CCN(c4c(C#N)c(=O)n(C)c5ccccc45)CC3)nc12 [Example 17, 1-methyl-4-[4-(4-methyl-1,3-benzoxazol-2-yl)piperidin-1-yl]-2-oxo-1,2-dihydroquinoline-3-carbonitrile] | 12 |
| Cn1c(=O)c(C#N)c(N2CCC(c3nc4cc(Cl)ccc4s3)CC2)c2ccccc21 [Example 18, 4-[4-(5-chloro-1,3-benzothiazol-2-yl)piperidin-1-yl]-1-methyl-2-oxo-1,2-dihydroquinoline-3-carbonitrile] | 3.7 |
| Cn1c(=O)c(C#N)c(N2CCC(c3nc4ccc(Cl)nc4s3)CC2)c2ccccc21 [Example 19, 4-[4-(5-chloro[1,3]thiazolo[5,4-b]pyridin-2-yl)piperidin-1-yl]-1-methyl-2-oxo-1,2-dihydroquinoline-3-carbonitrile] | 15 |
| Cn1c(=O)c(C#N)c(N2CCC(C)(c3nc4ccc(OC(F)(F)F)cc4o3)CC2)c2ccccc21 [Example 20, 1-methyl-4-{4-methyl-4-[6-(trifluoromethoxy)-1,3-benzoxazol-2-yl]piperidin-1-yl}-2-oxo-1,2-dihydroquinoline-3-carbonitrile] | 1.5 |
| CC(C)c1ccc2oc(C3(C)CCN(c4c(C#N)c(=O)n(C)c5ccccc45)CC3)nc2c1 [Example 21, 1-methyl-4-{4-methyl-4-[5-(propan-2-yl)-1,3-benzoxazol-2-yl]piperidin-1-yl}-2-oxo-1,2-dihydroquinoline-3-carbonitrile] | 5.2 |
| Cn1c(=O)c(C#N)c(N2CCC(c3nc4cc(F)c(F)cc4o3)CC2)c2ccccc21 [Example 22, 4-[4-(5,6-difluoro-1,3-benzoxazol-2-yl)piperidin-1-yl]-1-methyl-2-oxo-1,2-dihydroquinoline-3-carbonitrile] | 6 |
| Cn1c(=O)c(C#N)c(N2CCC(c3nc4cc(C(F)(F)F)ccc4s3)CC2)c2ccccc21 [Example 23, 1-methyl-2-oxo-4-{4-[5-(trifluoromethyl)-1,3-benzothiazol-2-yl]piperidin-1-yl}-1,2-dihydroquinoline-3-carbonitrile] | 12 |
| Cn1c(=O)c(C#N)c(N2CCC(C)(c3nc4cc(C(C)(C)C)ccc4o3)CC2)c2ccccc21 [Example 24, 4-[4-(5-tert-butyl-1,3-benzoxazol-2-yl)-4-methylpiperidin-1-yl]-1-methyl-2-oxo-1,2-dihydroquinoline-3-carbonitrile] | 45 |
| Cn1c(=O)c(C#N)c(N2CCC(C)(c3nc4cc(S(C)(=O)=O)ccc4o3)CC2)c2ccccc21 [Example 25, 4-{4-[5-(methanesulfonyl)-1,3-benzoxazol-2-yl]-4-methylpiperidin-1-yl}-1-methyl-2-oxo-1,2-dihydroquinoline-3-carbonitrile] | 168 |
| Cn1c(=O)c(C#N)c(N2CCC(c3nc4c(F)cccc4o3)CC2)c2ccccc21 [Example 26, 4-[4-(4-fluoro-1,3-benzoxazol-2-yl)piperidin-1-yl]-1-methyl-2-oxo-1,2-dihydroquinoline-3-carbonitrile] | 10 |
| Cn1c(=O)c(C#N)c(N2CCC(c3nc4ccccc4o3)CC2)c2ccc(Br)cc21 [Example 27, 4-[4-(1,3-benzoxazol-2-yl)piperidin-1-yl]-7-bromo-1-methyl-2-oxo-1,2-dihydroquinoline-3-carbonitrile] | 2 |
| Cn1c(=O)c(C#N)c(N2CCC(c3nc4ccc(Cl)cc4o3)CC2)c2ccc(Br)cc21 [Example 32, 7-bromo-4-[4-(6-chloro-1,3-benzoxazol-2-yl)piperidin-1-yl]-1-methyl-2-oxo-1,2-dihydroquinoline-3-carbonitrile] | 6 |
| Cn1c(=O)c(C#N)c(N2CCC(c3nc4ccccc4s3)CC2)c2ccc(Br)cc21 [Example 33, 4-[4-(1,3-benzothiazol-2-yl)piperidin-1-yl]-7-bromo-1-methyl-2-oxo-1,2-dihydroquinoline-3-carbonitrile] | 6.2 |
| Cn1c(=O)c(C#N)c(N2CCC(c3nc4ccccc4o3)CC2)c2ccc(N3CCCC3=O)cc21 [Example 35, 4-[4-(1,3-benzoxazol-2-yl)piperidin-1-yl]-1-methyl-2-oxo-7-(2-oxopyrrolidin-1-yl)-1,2-dihydroquinoline-3-carbonitrile] | 7.8 |
| Cn1c(=O)c(C#N)c(N2CCC(c3nc4ccccc4s3)CC2)c2ccc(N3CCCC3=O)cc21 [Example 36, 4-[4-(1,3-benzothiazol-2-yl)piperidin-1-yl]-1-methyl-2-oxo-7-(2-oxopyrrolidin-1-yl)-1,2-dihydroquinoline-3-carbonitrile] | 8.3 |
| Cn1c(=O)c(C#N)c(N2CCC(c3ccc(OCC(F)(F)F)cc3)CC2)c2ccccc21 [Example 37, 1-methyl-2-oxo-4-{4-[4-(2,2,2-trifluoroethoxy)phenyl]piperidin-1-yl}-1,2-dihydroquinoline-3-carbonitrile] | 1.1 |

| SMILES | IC50 [nM] |
| --- | --- |
| CC(C)Oc1ccc(C2CCN(c3c(C#N)c(=O)n(C)c4ccccc34)CC2)cc1 [Example 38, 1-methyl-2-oxo-4-(4-{4-[(propan-2-yl)oxy]phenyl}piperidin-1-yl)-1,2-dihydroquinoline-3-carbonitrile] | 1.5 |
| COc1ccc(C2CCN(c3c(C#N)c(=O)n(C)c4ccccc34)CC2)cc1 [Example 41, 4-[4-(4-methoxyphenyl)piperidin-1-yl]-1-methyl-2-oxo-1,2-dihydroquinoline-3-carbonitrile] | 4.9 |
| CCCOc1ccc(C2CCN(c3c(C#N)c(=O)n(C)c4ccccc34)CC2)cc1 [Example 42, 1-methyl-2-oxo-4-[4-(4-propoxyphenyl)piperidin-1-yl]-1,2-dihydroquinoline-3-carbonitrile] | 11 |
| Cn1c(=O)c(C#N)c(N2CCC(c3ccc(OC(F)(F)F)cc3)CC2)c2ccccc21 [Example 43, 1-methyl-2-oxo-4-{4-[4-(trifluoromethoxy)phenyl]piperidin-1-yl}-1,2-dihydroquinoline-3-carbonitrile] | 11 |
| Cn1c(=O)c(C#N)c(N2CCC(c3cccc(C4CC4)c3)CC2)c2ccccc21 [Example 45, 4-[4-(3-cyclopropylphenyl)piperidin-1-yl]-1-methyl-2-oxo-1,2-dihydroquinoline-3-carbonitrile] | 2.1 |
| CN(C)c1ccc(C2CCN(c3c(C#N)c(=O)n(C)c4ccccc34)CC2)cc1 [Example 46, 4-{4-[4-(dimethylamino)phenyl]piperidin-1-yl}-1-methyl-2-oxo-1,2-dihydroquinoline-3-carbonitrile] | 2.5 |
| CC(C)c1ccc(C2CCN(c3c(C#N)c(=O)n(C)c4ccccc34)CC2)cc1 [Example 47, 1-methyl-2-oxo-4-{4-[4-(propan-2-yl)phenyl]piperidin-1-yl}-1,2-dihydroquinoline-3-carbonitrile] | 3 |
| Cn1c(=O)c(C#N)c(N2CCC(c3ccc(OCc4ccccc4)cc3)CC2)c2ccccc21 [Example 48, 4-{4-[4-(benzyloxy)phenyl]piperidin-1-yl}-1-methyl-2-oxo-1,2-dihydroquinoline-3-carbonitrile] | 3 |
| Cn1ccc2cc(C3CCN(c4c(C#N)c(=O)n(C)c5ccccc45)CC3)ccc21 [Example 50, 1-methyl-4-[4-(1-methyl-1H-indol-5-yl)piperidin-1-yl]-2-oxo-1,2-dihydroquinoline-3-carbonitrile] | 8.3 |
| Cc1cc(F)cc(C2CCN(c3c(C#N)c(=O)n(C)c4ccccc34)CC2)c1 [Example 51, 4-[4-(3-fluoro-5-methylphenyl)piperidin-1-yl]-1-methyl-2-oxo-1,2-dihydroquinoline-3-carbonitrile] | 8.3 |
| COc1ccccc1C1CCN(c2c(C#N)c(=O)n(C)c3ccccc23)CC1 [Example 52, 4-[4-(2-methoxyphenyl)piperidin-1-yl]-1-methyl-2-oxo-1,2-dihydroquinoline-3-carbonitrile] | 8.8 |
| Cn1c(=O)c(C#N)c(N2CCC(c3ccc(-c4ccccc4)cc3)CC2)c2ccccc21 [Example 53, 4-[4-([1,1′-biphenyl]-4-yl)piperidin-1-yl]-1-methyl-2-oxo-1,2-dihydroquinoline-3-carbonitrile] | 13 |
| Cn1c(=O)c(C#N)c(N2CCC(c3ccc(Cl)cc3)CC2)c2ccccc21 [Example 54, 4-[4-(4-chlorophenyl)piperidin-1-yl]-1-methyl-2-oxo-1,2-dihydroquinoline-3-carbonitrile] | 14 |
| COc1cccc(C2CCN(c3c(C#N)c(=O)n(C)c4ccccc34)CC2)c1 [Example 55, 4-[4-(3-methoxyphenyl)piperidin-1-yl]-1-methyl-2-oxo-1,2-dihydroquinoline-3-carbonitrile] | 14 |
| Cn1c(=O)c(C#N)c(N2CCC(c3ccc(Oc4ccccc4)cc3)CC2)c2ccccc21 [Example 56, 1-methyl-2-oxo-4-[4-(4-phenoxyphenyl)piperidin-1-yl]-1,2-dihydroquinoline-3-carbonitrile] | 17 |
| Cn1c(=O)c(C#N)c(N2CCC(c3ccccc3)CC2)c2ccccc21 [Example 57, 1-methyl-2-oxo-4-(4-phenylpiperidin-1-yl)-1,2-dihydroquinoline-3-carbonitrile] | 22 |

From patent US11998539B2, “Substituted aminoquinolones as DGKalpha inhibitors for immune activation” (Bayer Aktiengesellschaft, priority 2019, dated 2024)
